Measurements taken from ChEMBL document CHEMBL5550132, “Structure-activity relationship in NOD2 agonistic muramyl dipeptides” (Eur J Med Chem, 2024).

How the values were obtained:
Assay type in all cases: cell-based
Conditions in all cases: filed as activator
[1] = target: T1, Nuclear factor NF-kappa-B complex (Homo sapiens) (UniProt Q00653+P19838+Q04206); assay: Activation of NF-KappaB (unknown origin) expressed in HEK293T cells assessed as fold change at 1000 nM incubated for 12 hrs by Renilla luciferase assay
T1 sequence (P19838 whole entry, looked up): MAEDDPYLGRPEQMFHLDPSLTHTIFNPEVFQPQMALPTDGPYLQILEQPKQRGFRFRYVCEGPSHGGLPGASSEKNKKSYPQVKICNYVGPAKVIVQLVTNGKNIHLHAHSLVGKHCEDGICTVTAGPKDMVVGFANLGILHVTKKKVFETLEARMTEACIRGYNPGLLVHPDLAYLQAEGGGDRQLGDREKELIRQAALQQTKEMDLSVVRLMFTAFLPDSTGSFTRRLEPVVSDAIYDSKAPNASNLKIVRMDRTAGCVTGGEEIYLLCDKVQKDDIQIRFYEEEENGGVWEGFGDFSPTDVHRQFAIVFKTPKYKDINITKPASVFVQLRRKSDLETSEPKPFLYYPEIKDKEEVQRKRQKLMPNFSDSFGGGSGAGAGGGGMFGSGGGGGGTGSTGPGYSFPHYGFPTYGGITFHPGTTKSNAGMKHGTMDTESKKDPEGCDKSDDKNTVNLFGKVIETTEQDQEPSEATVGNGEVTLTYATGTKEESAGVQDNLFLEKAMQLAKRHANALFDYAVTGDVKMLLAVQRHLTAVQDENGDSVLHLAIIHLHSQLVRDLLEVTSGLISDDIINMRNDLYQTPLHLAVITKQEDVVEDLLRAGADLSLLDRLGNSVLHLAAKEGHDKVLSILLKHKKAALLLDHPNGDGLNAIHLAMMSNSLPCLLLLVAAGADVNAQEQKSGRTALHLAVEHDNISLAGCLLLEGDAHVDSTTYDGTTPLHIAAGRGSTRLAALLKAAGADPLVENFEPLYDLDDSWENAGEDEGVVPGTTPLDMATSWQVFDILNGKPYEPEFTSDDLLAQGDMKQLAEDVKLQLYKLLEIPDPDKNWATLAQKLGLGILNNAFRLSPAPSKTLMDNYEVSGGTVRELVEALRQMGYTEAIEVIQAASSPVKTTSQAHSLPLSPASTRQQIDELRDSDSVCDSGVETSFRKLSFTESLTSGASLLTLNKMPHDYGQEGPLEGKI
T1 sequence (Q00653 whole entry, looked up): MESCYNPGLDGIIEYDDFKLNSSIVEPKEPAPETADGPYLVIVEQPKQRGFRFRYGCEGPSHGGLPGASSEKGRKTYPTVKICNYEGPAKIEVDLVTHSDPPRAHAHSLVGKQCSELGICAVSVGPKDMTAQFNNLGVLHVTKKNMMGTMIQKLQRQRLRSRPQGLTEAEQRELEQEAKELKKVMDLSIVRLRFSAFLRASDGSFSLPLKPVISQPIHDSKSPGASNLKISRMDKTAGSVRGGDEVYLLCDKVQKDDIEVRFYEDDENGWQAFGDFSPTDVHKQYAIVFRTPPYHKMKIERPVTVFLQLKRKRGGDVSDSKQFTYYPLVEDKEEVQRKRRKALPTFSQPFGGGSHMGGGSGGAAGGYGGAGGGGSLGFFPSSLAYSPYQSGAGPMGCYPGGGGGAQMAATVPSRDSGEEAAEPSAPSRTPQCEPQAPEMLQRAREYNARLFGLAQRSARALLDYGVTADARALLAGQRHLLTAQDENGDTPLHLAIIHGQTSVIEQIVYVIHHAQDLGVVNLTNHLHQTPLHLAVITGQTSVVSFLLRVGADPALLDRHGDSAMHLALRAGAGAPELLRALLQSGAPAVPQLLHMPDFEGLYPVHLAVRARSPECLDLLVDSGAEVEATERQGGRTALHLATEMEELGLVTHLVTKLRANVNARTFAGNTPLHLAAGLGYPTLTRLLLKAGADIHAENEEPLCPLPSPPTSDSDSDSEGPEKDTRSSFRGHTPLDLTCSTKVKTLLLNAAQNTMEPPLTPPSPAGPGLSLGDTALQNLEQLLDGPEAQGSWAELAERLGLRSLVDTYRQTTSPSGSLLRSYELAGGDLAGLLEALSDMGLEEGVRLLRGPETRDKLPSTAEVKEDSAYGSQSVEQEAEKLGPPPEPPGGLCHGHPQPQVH
T1 sequence (Q04206 whole entry, looked up): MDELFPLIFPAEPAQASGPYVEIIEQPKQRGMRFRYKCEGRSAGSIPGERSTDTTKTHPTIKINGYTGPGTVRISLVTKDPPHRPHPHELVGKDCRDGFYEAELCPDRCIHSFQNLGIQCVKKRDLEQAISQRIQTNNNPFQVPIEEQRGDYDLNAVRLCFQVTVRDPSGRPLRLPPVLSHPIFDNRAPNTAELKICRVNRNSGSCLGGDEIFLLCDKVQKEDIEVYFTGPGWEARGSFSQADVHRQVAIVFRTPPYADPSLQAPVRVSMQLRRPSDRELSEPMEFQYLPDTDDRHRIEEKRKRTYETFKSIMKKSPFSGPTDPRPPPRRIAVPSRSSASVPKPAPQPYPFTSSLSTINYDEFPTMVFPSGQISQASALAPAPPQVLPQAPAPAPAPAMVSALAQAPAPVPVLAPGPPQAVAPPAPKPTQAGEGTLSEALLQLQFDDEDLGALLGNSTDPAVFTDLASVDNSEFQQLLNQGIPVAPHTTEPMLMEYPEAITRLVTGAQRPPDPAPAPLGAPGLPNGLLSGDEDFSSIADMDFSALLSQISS

[2] = target: T1, Nuclear factor NF-kappa-B complex (Homo sapiens); assay: Activation of NF-KappaB (unknown origin) expressed in HEK293T cells assessed as fold change at 100 nM incubated for 12 hrs by Renilla luciferase assay
[3] = target: T1, Nuclear factor NF-kappa-B complex (Homo sapiens); assay: Activation of NF-KappaB (unknown origin) expressed in HEK293T cells assessed as fold change at 10 nM incubated for 12 hrs by Renilla luciferase assay
[4] = target: T1, Nuclear factor NF-kappa-B complex (Homo sapiens); assay: Activation of NF-KappaB (unknown origin) expressed in HEK293T cells assessed as fold change at 10 ng incubated for 12 hrs by Renilla luciferase assay
[5] = target: T1, Nuclear factor NF-kappa-B complex (Homo sapiens); assay: Activation of NF-KappaB (unknown origin) expressed in HEK293T cells assessed as fold change at 1 uM incubated for 12 hrs by Renilla luciferase assay

SMILES	fold change (FC) [1]	fold change (FC) [2]	fold change (FC) [3]	fold change (FC) [4]	fold change (FC) [5]
CCOC(=O)[C@@H](CCC(=O)O)NC(=O)[C@H](C)NC(=O)[C@@H](C)O[C@H]1[C@H](O)[C@@H](CO)O[C@@H](O)[C@@H]1NC(C)=O	6.6	6.3	4	4	–
COCC(=O)N[C@H]1[C@H](OC)O[C@H](CO)[C@@H](O)[C@@H]1O[C@H](C)C(=O)N[C@@H](C)C(=O)N[C@H](CCC(=O)O)C(N)=O	–	–	–	–	5.55
CO[C@@H]1O[C@H](CO)[C@@H](O)[C@H](O[C@H](C)C(=O)N[C@@H](C)C(=O)N[C@H](CCC(=O)O)C(N)=O)[C@H]1NC(=O)CO	–	–	–	–	5.9
CO[C@@H]1O[C@H](CO)[C@@H](O)[C@H](O[C@H](C)C(=O)N[C@@H](C)C(=O)N[C@H](CCC(=O)O)C(N)=O)[C@H]1NC(=O)Cc1c(F)c(F)c(F)c(F)c1F	–	–	–	–	5
CCCCCCCCC(=O)N[C@H]1[C@H](OC)O[C@H](CO)[C@@H](O)[C@@H]1O[C@H](C)C(=O)N[C@@H](C)C(=O)N[C@H](CCC(=O)O)C(N)=O	–	–	–	–	4.3
CCOC(=O)CC[C@@H](NC(=O)[C@H](C)NC(=O)[C@@H](C)O[C@H]1[C@H](O)[C@@H](CO)O[C@@H](O)[C@@H]1NC(C)=O)C(N)=O	5.6	2.8	1.6	1.6	–
CCCCC(=O)N[C@H]1[C@H](OC)O[C@H](CO)[C@@H](O)[C@@H]1O[C@H](C)C(=O)N[C@@H](C)C(=O)N[C@H](CCC(=O)O)C(N)=O	–	–	–	–	5.25
CC(=O)N[C@@H]1[C@@H](O[C@H](C)C(=O)N[C@@H](C)C(=O)N[C@H](CCC(=O)O)C(=O)OCCCl)[C@H](O)[C@@H](CO)O[C@H]1O	6.55	6.6	4.2	4.2	–
CCCCCCNC(=O)[C@@H](CCC(=O)O)NC(=O)[C@H](C)NC(=O)[C@@H](C)O[C@H]1[C@H](O)[C@@H](CO)O[C@@H](O)[C@@H]1NC(C)=O	2.8	1.15	1.1	1.1	–
CCCCCCCCCCCCCCCCOC(=O)[C@@H](CCC(=O)O)NC(=O)[C@H](C)NC(=O)[C@@H](C)O[C@H]1[C@H](O)[C@@H](CO)O[C@@H](O)[C@@H]1NC(C)=O	4.9	7	5.3	5.3	–
C[C@H](NC(=O)[C@@H](C)O[C@@H]1[C@@H](N)[C@H](O)O[C@H](CO)[C@H]1O)C(=O)N[C@H](CCC(=O)O)C(N)=O	–	–	–	–	4.6
CCCCCCCCCCCO[C@@H]1O[C@H](CO)[C@@H](O)[C@H](O[C@H](C)C(=O)N[C@@H](C)C(=O)N[C@H](CCC(=O)O)C(N)=O)[C@H]1NC(=O)CO	–	–	–	–	4.85
COCC(=O)N[C@@H]1[C@@H](O[C@H](C)C(=O)N[C@@H](C)C(=O)N[C@H](CCC(=O)O)C(N)=O)[C@H](O)[C@@H](CO)O[C@H]1O	–	–	–	–	4.4
CC(=O)N[C@@H]1[C@@H](O[C@H](C)C(=O)N[C@@H](C)C(=O)N[C@H](CCC(=O)O)C(=O)NCC(F)(F)C(F)(F)F)[C@H](O)[C@@H](CO)O[C@H]1O	2.4	0.9	0.8	0.8	–
CCCCCCCCCCCCOC(=O)[C@@H](CCC(=O)O)NC(=O)[C@H](C)NC(=O)[C@@H](C)O[C@H]1[C@H](O)[C@@H](CO)O[C@@H](O)[C@@H]1NC(C)=O	6.3	6.5	7.5	7.5	–
CC(=O)N[C@@H]1[C@@H](O[C@H](C)C(=O)N[C@@H](C)C(=O)N[C@H](CCC(=O)O)C(=O)OCCc2ccccc2)[C@H](O)[C@@H](CO)O[C@H]1O	6	7	5.6	5.6	–
C[C@H](NC(=O)[C@@H](C)O[C@H]1[C@H](O)[C@@H](CO)O[C@@H](O)[C@@H]1NC(=O)CN)C(=O)N[C@H](CCC(=O)O)C(N)=O	–	–	–	–	4.5

SMILES	fold change (FC) [1]	fold change (FC) [2]	fold change (FC) [3]	fold change (FC) [4]	fold change (FC) [5]
CCCCNC(=O)[C@@H](CCC(=O)O)NC(=O)[C@H](C)NC(=O)[C@@H](C)O[C@H]1[C@H](O)[C@@H](CO)O[C@@H](O)[C@@H]1NC(C)=O	2.1	1.1	1.1	1.1	–
CC(=O)N[C@@H]1[C@@H](O[C@H](C)C(=O)N[C@@H](C)C(=O)N[C@H](CCC(=O)O)C(=O)OC2CCCCC2)[C@H](O)[C@@H](CO)O[C@H]1O	6.55	6.8	4.6	4.6	–
CC(=O)N[C@@H]1[C@@H](O[C@H](C)C(=O)N[C@@H](C)C(=O)N[C@H](CCC(=O)O)C(=O)NC2CCCCC2)[C@H](O)[C@@H](CO)O[C@H]1O	2.9	1	1	1	–
CCCCOC(=O)[C@@H](CCC(=O)O)NC(=O)[C@H](C)NC(=O)[C@@H](C)O[C@H]1[C@H](O)[C@@H](CO)O[C@@H](O)[C@@H]1NC(C)=O	7.8	7.1	4.7	4.7	–
C[C@H](NC(=O)[C@@H](C)O[C@H]1[C@H](O)[C@@H](CO)O[C@@H](OCCCCN)[C@@H]1NC(=O)CO)C(=O)N[C@H](CCC(=O)O)C(N)=O	–	–	–	–	5
CCCCCO[C@@H]1O[C@H](CO)[C@@H](O)[C@H](O[C@H](C)C(=O)N[C@@H](C)C(=O)N[C@H](CCC(=O)O)C(N)=O)[C@H]1NC(=O)CO	–	–	–	–	4.5
CCCCC(=O)N[C@@H]1[C@@H](O[C@H](C)C(=O)N[C@@H](C)C(=O)N[C@H](CCC(=O)O)C(N)=O)[C@H](O)[C@@H](CO)O[C@H]1O	–	–	–	–	4.5
CCCCCCCCCCCCCCCCCCCCOC(=O)[C@@H](CCC(=O)O)NC(=O)[C@H](C)NC(=O)[C@@H](C)O[C@H]1[C@H](O)[C@@H](CO)O[C@@H](O)[C@@H]1NC(C)=O	5.7	7.35	5.7	5.7	–
CO[C@@H]1O[C@H](CO)[C@@H](O)[C@H](O[C@H](C)C(=O)N[C@@H](C)C(=O)N[C@H](CCC(=O)O)C(N)=O)[C@H]1NC(=O)Cc1ccccc1	–	–	–	–	4.45
C[C@H](NC(=O)[C@@H](C)O[C@H]1[C@H](O)[C@@H](CO)O[C@@H](O)[C@@H]1NC(=O)CO)C(=O)N[C@H](CCC(=O)O)C(N)=O	–	–	–	–	4.5
C[C@H](NC(=O)[C@@H](C)O[C@H]1[C@H](O)[C@@H](CO)O[C@@H](O)[C@@H]1NC(=O)Cc1ccccc1)C(=O)N[C@H](CCC(=O)O)C(N)=O	–	–	–	–	3.85
C[C@H](NC(=O)[C@@H](C)O[C@H]1[C@H](O)[C@@H](CO)O[C@@H](O)[C@@H]1NC(=O)Cc1c(F)c(F)c(F)c(F)c1F)C(=O)N[C@H](CCC(=O)O)C(N)=O	–	–	–	–	5.4
CO[C@@H]1O[C@H](CO)[C@@H](O)[C@H](O[C@H](C)C(=O)N[C@@H](C)C(=O)N[C@H](CCC(=O)O)C(N)=O)[C@H]1N	–	–	–	–	6.2
CC(=O)N[C@@H]1[C@@H](O[C@H](C)C(=O)N[C@@H](C)C(=O)N[C@H](CC(=O)O)C(N)=O)[C@H](O)[C@@H](CO)O[C@H]1O	1.9	1.87	1.85	–	–
CCCCCCCCC(=O)N[C@@H]1[C@@H](O[C@H](C)C(=O)N[C@@H](C)C(=O)N[C@H](CCC(=O)O)C(N)=O)[C@H](O)[C@@H](CO)O[C@H]1O	–	–	–	–	2.4
C[C@H](NC(=O)CO[C@H]1[C@H](O)[C@@H](CO)O[C@@H](O)[C@@H]1NC(=O)CO)C(=O)N[C@H](CCC(=O)O)C(N)=O	–	–	–	–	5.8
